Measured values reported in patent publication US20220242905A1, “MODIFIED PEPTIDES AND THEIR USE” (UNIVERSITE DE MONTPELLIER, priority 2018, published 2022).
Converted amounts (≈) assume the structure as drawn.

How the values were obtained:
[1] = test system: Bacillus subtilis ATCC6633; type: cell-based; conditions: for Minimal inhibitory concentration (MIC) B. subtilis ATCC6633: ATCC6633, 24 h; for Minimal bactericidal concentration (MBC) B. subtilis ATCC6633: value in bracket, 24 h at 37° C.
Description: (§1) Minimal inhibitory concentration (MIC) values and minimal bactericidal concentration (MBCs) values for ATC-peptides 1-9 were determined against both Gram-positive (Bacillus subtilis, Staphylococcus aureus, Enterococcus faecalis) and Gram negative (Escherichia coli, Pseudomonas aeruginosa) bacteria as well as a yeast (Candida albicans). Experiments were conducted in triplicate. For B. subtilis, compounds were tested against vegetative cells and spores, which are particularly resistant to the action of antimicrobial agents. MIC and MBCs values are shown Table 12. In addition, haemolytic properties of 1-9 were tested.
(§2) the antimicrobial performances of oligomers antimicrobial activity were determined on three Gram positive strains (Bacillus subtilis ATCC6633, Staphylococcus aureus ATCC6538 and Enterococcus faecalis ATCC29121), two Gram negative strains (Escherichia coli ATCC8739 and Pseudomonas aeruginosa ATCC9027) and one fungal strain (Candida albicans ATCC10231). Each bacterial strain was allowed to grow overnight on Trypto-Caseine-Soja agar (TSA, Difco) at 37° C., C. albicans was allowed to grow 48 h on a sabouraud medium (Difco) at 20-25° C. A fresh suspension at 10^8 CFU·mL^−1 was then prepared by inoculating the micro-organisms in a Tryptone-Sel solution. Concentration was monitored by measuring transmitted light at 620 nm or with the Mac Farland turbidity standard (Mac Farland=0.5≈10^8 CFU·mL^−1). Each suspension was then diluted in a doubly strong Mueller-Hinton (MH, Difco) broth to […]. Two-fold serial dilutions (100 μL) of oligomers in sterile water (pH adjusted between 7.4 and 7.7 with HCl and NaOH solutions) were mixed with microbial inoculum (100 μL) in NUNC sterile clear polystyrene flat-bottom 96-well plates. A 1/1 v/v oligomer solution/water mixture was used a negative control and a 1/1 vv water/microbial inoculum mixture was used a positive control. Plates were then incubated 24 h at 37° C. for bacteria and 48 h at 25° C. for C. albicans. Minimum Inhibitory Concentration (MIC) was determined as the lowest concentration inhibiting the growth of each micro-organism. […] Minimum Bactericidal Concentration (MBC) was determined as the lowest concentration that prevent the growth of more than one colony. Each assay was performed in a triple duplicate for each strain.

[2] = test system: Candida albicans ATCC10231; type: cell-based; conditions: for Minimal inhibitory concentration (MIC) C. albicans ATCC10231: ATCC10231, 48 h; for Minimal bactericidal concentration (MBC) C. albicans ATCC10231: value in bracket, 48 h at 25° C.
Description: as §1, §2

[3] = test system: Enterococcus faecalis ATCC29121; type: cell-based; conditions: for Minimal inhibitory concentration (MIC) E. faecalis ATCC29121: ATCC29121, 24 h; for Minimal bactericidal concentration (MBC) E. faecalis ATCC29121: value in bracket, 24 h at 37° C.
Description: as §1, §2

[4] = test system: Escherichia coli ATCC8739; type: cell-based; conditions: for Minimal inhibitory concentration (MIC) E. coli ATCC8739: ATCC8739, 24 h; for Minimal bactericidal concentration (MBC) E. coli ATCC8739: value in bracket, 24 h at 37° C.
Description: as §1, §2

[5] = test system: Pseudomonas aeruginosa ATCC9027; type: cell-based; conditions: for Minimal inhibitory concentration (MIC) P. aeruginosa ATCC9027: ATCC9027, 24 h; for Minimal bactericidal concentration (MBC) P. aeruginosa ATCC9027: value in bracket, 24 h at 37° C.
Description: as §1, §2

[6] = test system: Staphylococcus aureus ATCC6538; type: cell-based; conditions: for Minimal inhibitory concentration (MIC) S. aureus ATCC6538: ATCC6538, 24 h; for Minimal bactericidal concentration (MBC) S. aureus ATCC6538: value in bracket, 24 h at 37° C.
Description: as §1, §2

Hemolytic activity = type: cell-based, Human; conditions: human, human red blood cell suspension; hRBCs, 1 h at 37° C.; read-out: HD50, dose required to lyse 50% of the red blood cells
Description: Procedure for measurements of hemolytic activity: Human red blood cells (hRBCs) were washed multiple times with phosphate-buffered saline (PBS) until a clear supernatant was obtained. The hRBCs suspension was made in PBS with a Packed Cell Volume of 5%, Two-fold serial dilutions (50 μL) of oligomers in sterile water (pH adjusted between 7.4 and 7.7 with HCl and NaOH solutions) were mixed with hRBCs suspension (50 μL) in clear polystyrene optical-bottom 96-well plates which were filmed and incubated for 1 h at 37° C. A 1/1 vv hRBCs solution/PBS mixture was used a negative control and a 1/1 vv hRBCs solution/1% (TRIS 50 mM pH=8.0+1% SDS) mixture was used a positive control for 100% hemolysis. The mixture was then centrifuged at 1500 g for 10 min at 5° C. Next, 50 μL of the supernatant was transferred into a second plate, and the absorbance was read at 490 nm using a BioRad iMark plate reader. The hemolysis percentage was calculated by the formula % hemolysis=[Absorbance (sample)−Absorbance (negative control)]/[Absorbance (positive control)−Absorbance (negative control)]×100%. Each assay was performed in a double duplicate. Hemolytic activity was determined or estimated with the Hemolytic Concentration leading to 50% of lysis of hRBCs (HC50).

Row | Structure (SMILES) | Minimal inhibitory concentration (MIC) B. subtilis ATCC6633 [1] [µM] | Minimal inhibitory concentration (MIC) C. albicans ATCC10231 [2] [µM] | Minimal inhibitory concentration (MIC) E. faecalis ATCC29121 [3] [µM] | Minimal inhibitory concentration (MIC) E. coli ATCC8739 [4] [µM] | Minimal inhibitory concentration (MIC) P. aeruginosa ATCC9027 [5] [µM] | Minimal inhibitory concentration (MIC) S. aureus ATCC6538 [6] [µM] | HC50 at 1 h (Hemolytic activity) [µM] | Minimal bactericidal concentration (MBC) B. subtilis ATCC6633 [1] | Minimal bactericidal concentration (MBC) C. albicans ATCC10231 [2] | Minimal bactericidal concentration (MBC) E. faecalis ATCC29121 [3] | Minimal bactericidal concentration (MBC) E. coli ATCC8739 [4] | Minimal bactericidal concentration (MBC) P. aeruginosa ATCC9027 [5] | Minimal bactericidal concentration (MBC) S. aureus ATCC6538 [6]
1 | CC(=O)N[C@@H](CCCCN)c1nc(C)sc1C(=O)N[C@@H](C)c1nc(CCCCN)sc1C(=O)N[C@@H](C)c1nc(C)sc1C(N)=O [Oligomer 1] | >150 | >150 | >150 | >150 | >150 | >150 | > 100 |  |  |  |  |  | 
2 | CC(=O)N[C@@H](CCCCN)c1nc(C)sc1C(=O)N[C@@H](C)c1nc(CCCCN)sc1C(=O)N[C@@H](C)c1nc(C)sc1C(=O)N[C@@H](CCCCN)c1nc(C)sc1C(=O)N[C@@H](C)c1nc(CCCCN)sc1C(=O)N[C@@H](C)c1nc(C)sc1C(N)=O [Oligomer 2] | 30 (≈ 38.9 µg/mL) | 62.5 (≈ 81 µg/mL) | >150 | >150 | >150 | >150 | > 100 |  |  |  |  |  | 
3 | CC(=O)N[C@@H](CCCCN)c1nc(C)sc1C(=O)N[C@@H](C)c1nc(CCCCN)sc1C(=O)N[C@@H](C)c1nc(C)sc1C(=O)N[C@@H](CCCCN)c1nc(C)sc1C(=O)N[C@@H](C)c1nc(CCCCN)sc1C(=O)N[C@@H](C)c1nc(C)sc1C(=O)N[C@@H](CCCCN)c1nc(C)sc1C(=O)N[C@@H](C)c1nc(CCCCN)sc1C(=O)N[C@@H](C)c1nc(C)sc1C(N)=O [Oligomer 3] | 0.8 (≈ 1.53 µg/mL) | 10.4 (≈ 19.9 µg/mL) | >150 | 5.2 (≈ 9.96 µg/mL) | 42 (≈ 80.5 µg/mL) | >150 | > 100 | (0.8) μM | (10.4) μM | (>150) μM | (7.3) μM | (83) μM | (>150) μM
4 | CC(=O)N[C@@H](CCCCN)c1nc(C)sc1C(=O)N[C@@H](C)c1nc(CCCCN)sc1C(=O)N[C@@H](C)c1nc(C)sc1C(=O)N[C@@H](CCCCN)c1nc(C)sc1C(=O)N[C@@H](C)c1nc(CCCCN)sc1C(=O)N[C@@H](C)c1nc(C)sc1C(=O)N[C@@H](CCCCN)c1nc(C)sc1C(=O)N[C@@H](C)c1nc(CCCCN)sc1C(=O)N[C@@H](C)c1nc(C)sc1C(=O)N[C@@H](CCCCN)c1nc(C)sc1C(=O)N[C@@H](C)c1nc(CCCCN)sc1C(=O)N[C@@H](C)c1nc(C)sc1C(N)=O [Oligomer 4] | 0.5 (≈ 1.27 µg/mL) | 3.7 (≈ 9.38 µg/mL) | >150 | 1.6 (≈ 4.06 µg/mL) | 3.9 (≈ 9.88 µg/mL) | 26 (≈ 65.9 µg/mL) | > 100 | (0.5) μM | (3.7) μM | (>150) μM | (1.6) μM | (5.2) μM | (57) μM
5 | CC(=O)N[C@@H](CCCCN)c1nc(C)sc1C(=O)N[C@@H](CC(C)C)c1nc(CCCCN)sc1C(=O)N[C@@H](C)c1nc(CC(C)C)sc1C(=O)N[C@@H](CCCCN)c1nc(C)sc1C(=O)N[C@@H](CC(C)C)c1nc(CCCCN)sc1C(=O)N[C@@H](C)c1nc(CC(C)C)sc1C(=O)N[C@@H](CCCCN)c1nc(C)sc1C(=O)N[C@@H](CC(C)C)c1nc(CCCCN)sc1C(=O)N[C@@H](C)c1nc(CC(C)C)sc1C(N)=O [Oligomer 6] | 1.3 (≈ 2.82 µg/mL) | 6.2 (≈ 13.4 µg/mL) | 6.2 (≈ 13.4 µg/mL) | 8.3 (≈ 18 µg/mL) | 6.2 (≈ 13.4 µg/mL) | 5.2 (≈ 11.3 µg/mL) | 23 |  | (6.2) μM | (6.2) μM | (8.3) μM | (6.2) μM | (5.2) μM
6 | CC(=O)N[C@@H](CCCCN)c1nc(C)sc1C(=O)N[C@@H](CC(C)C)c1nc(CCCCN)sc1C(=O)N[C@@H](C)c1nc(CC(C)C)sc1C(=O)N[C@@H](CCCCN)c1nc(C)sc1C(=O)N[C@@H](CC(C)C)c1nc(CCCCN)sc1C(=O)N[C@@H](C)c1nc(CC(C)C)sc1C(=O)N[C@@H](CCCCN)c1nc(C)sc1C(=O)N[C@@H](CC(C)C)c1nc(CCCCN)sc1C(=O)N[C@@H](C)c1nc(CC(C)C)sc1C(=O)N[C@@H](CCCCN)c1nc(C)sc1C(=O)N[C@@H](CC(C)C)c1nc(CCCCN)sc1C(=O)N[C@@H](C)c1nc(CC(C)C)sc1C(N)=O [Oligomer 7] | 4.2 (≈ 12.1 µg/mL) | 25 (≈ 71.8 µg/mL) | 10.4 (≈ 29.9 µg/mL) | 14.6 (≈ 41.9 µg/mL) | 14.6 (≈ 41.9 µg/mL) | 16.7 (≈ 47.9 µg/mL) | > 100 | (6.2) μM | (25) μM | (12.5) μM | (16.5) μM | (19) μM | (25) μM
7 | CC(=O)N[C@@H](CCCNC(=N)N)c1nc(C)sc1C(=O)N[C@@H](C)c1nc(CCCNC(=N)N)sc1C(=O)N[C@@H](C)c1nc(C)sc1C(=O)N[C@@H](CCCNC(=N)N)c1nc(C)sc1C(=O)N[C@@H](C)c1nc(CCCNC(=N)N)sc1C(=O)N[C@@H](C)c1nc(C)sc1C(=O)N[C@@H](CCCNC(=N)N)c1nc(C)sc1C(=O)N[C@@H](C)c1nc(CCCNC(=N)N)sc1C(=O)N[C@@H](C)c1nc(C)sc1C(N)=O [Oligomer 8] | 0.5 (≈ 1.04 µg/mL) | 9.4 (≈ 19.6 µg/mL) | 100 (≈ 208 µg/mL) | 0.8 (≈ 1.67 µg/mL) | 54 (≈ 113 µg/mL) | 14.6 (≈ 30.4 µg/mL) | > 100 | (0.5) μM | (12.5) μM | (>100) μM | (0.8) μM | (100) μM | (16.5) μM
